Data taken from patent US7037647B1, “Prostate-specific membrane antigen and uses thereof” (Sloan-Kettering Institute for Cancer Research, priority 1995, dated 2006).
Where two headings read alike, the source gives them in different places.

What was measured:
[1] = tested on: PSM mRNA expression in LNCaP cells; experiment: Steroid modulation of PSM mRNA expression, ribonuclease protection assay; assay type: cell-based, human; details: 24 hours; for downregulation of PSM mRNA expression: charcoal-extracted serum media, steroid 2 nM; for effect on PSM mRNA expression (in words): physiologic doses of steroids
Text: A portion of the PSM cDNA was subcloned into the plasmid vector pSPORT 1 (Gibco-BRL) and the orientation of the cDNA insert relative to the flanking T7 and SP6 RNA polymerase promoters was verified by restriction analysis. Linearization of this plasmid upstream of the PSM insert followed by transcription with SP6 RNA polymerase yields a 400 nucleotide antisense RNA probe, of which 350 nucleotides should be protected from RNase digestion by PSM RNA. This probe was used in FIG. 20. Plasmid IN-20, containing a 1 kb partial PSM cDNA in the plasmid pCR II (Invitrogen) was also used for riboprobe synthesis. IN-20 linearized with Xmn I (Gibco-BRL) yields a 298 nucleotide anti-sense RNA probe when transcribed using SP6 RNA polymerase, of which 260 nucleotides should be protected from RNase digestion by PSM mRNA. This probe was used in FIGS. 21 and 22. Probes were synthesized using SP6 RNA polymerase (Gibco-BRL), rNTPs (Gibco-BRL), RNAsin (Promega), and ^32P-rCTP (NEN, Wilmington, Del.) according to published protocols (13). Probes were purified over NENSORB 20 purification columns (NEN) and approximately 1 million cpm of purified, radiolabeled PSM probe was mixed with 10μ of each RNA and hybridized overnight at 45 C using buffers and reagents from the RPA II kit (Ambion, Austin, Tex.). Samples were processed as per manufacturer's instructions and analyzed on 5% polyacrilamide/7M urea denaturing gels using Seq ACRYL reagents (ISS, Natick, Mass.). Gels were pre-heated to 55 C and run for approximately 1-2 hours at 25 watts. Gels were then fixed for 30 minutes in 10% methanol/10% acetic acid, dried onto Whatman 3MM paper at 80 C in a BioRad vacuum dryer and autoradiographed overnight with Hyperfilm MP (Amersham). Quantitation of PSM expression was determined by using a scanning laser densitometer (LKB, Piscataway, N.J.).
LNCaP cells (2 million) were plated onto T-75 flasks in RPMI 1640 media supplemented with 5% fetal calf serum and grown 24 hours until approximately 30-40% confluent. Flasks were then washed several times with phophate-buffered saline and RPMI medium supplemented with 5% charcoal-extracted serum was added. Cells were then grown for another 24 hours, at which time dihydrotesterone, testosterone, estradiol, progesterone, and dexamethasone (Steraloids Inc., Wilton, N.H.) were added at a final concentration of 2 nM. Cells were grown for another 24 hours and RNA was then harvested as previously described and PSM expression analyzed by ribonuclease protection analysis.

[2] = molecular target: T1, PSM enzyme (folate hydrolase) (Homo sapiens, UniProt Q04609); assay type: biochemical; details: for hydrolysis as substrate by the PSM enzyme (in words): LNCaP membrane preparations
T1 construct: membrane preparations from androgen-sensitive human prostatic carcinoma cells (LNCaP); endogenous in cells; host or cells: LNCaP cell membranes
Text: Using capillary electrophoresisis pteroyl poly-gamma-glutamate carboxypeptidase (hydrolase) activity was investigated in membrane preparations from androgen-sensitive human prostatic carcinoma cells (LNCaP).

[3] = molecular target: T2, Prostate specific membrane antigen (Homo sapiens, UniProt Q04609); experiment: Inhibition of neuropeptidase activity (NAAG as substrate) of immunoprecipitated PSM; assay type: biochemical
T2 construct: Prostate specific membrane antigen was immuno precipitated from the prostate cancer cell line LNCaP; endogenous in cells; host or cells: LNCaP (immunoprecipitate)
Text: PSM may have activities both as a folate hydrolase and a carboxyneuropeptidase. For the cytotoxic drug methotrexate to be a tumor toxin it has to get into the cell and be polygammaglutamated which to be active, because polyglutamated forms serve as the enzyme substrates and because polyglutamated forms or toxins are also retained by the cell. Folate hydrolase is a competing reaction and deglutamates methotrexate which then can diffuse back out of the cell. Cells that overexpose folate hydrolase activity are resistant to methotrexate. Prostate cancer has always been absolutely refractory to methotrexate therapy and this may explain why, since the prostate and prostate cancer has a lot of folate hydolase activity. However, based on this activity, prodrugs may be generated which would be activate at the site of the tumor such as N-phosphonoacetyl-1-aspartate-glutamate.
Folate is necessary for the support of cell function and growth and thus this enzyme may serve to modulate folate access to the prostate and prostate tumor. The other area where PSM is expressed is in the small intestine. It turns out that a key enzyme of the small intestine that is involved in folate uptake acts as a gamma-carboxypeptidase in sequentially proteolytically removing the terminal gammaglutaminyl group from folate. […]

[4] = tested on: PSM mRNA expression in LNCaP cells; experiment: Modulation of PSM mRNA expression by cytokines and growth factors, Northern blot and laser densitometry; assay type: cell-based, human; details: 24 to 72 hours, 0.1 ng/ml to 100 ng/ml; for upregulation of PSM expression compared to untreated LNCaP: androgen-depleted media; for downregulation of PSM expression: androgen depleted LNCaP cells
Text: Total RNA was extracted from the cells and PSM mRNA expression was quantitated by Northern blot analysis and laser densitometry.

PC-3 cells = experiment: Mitogenic response to transferrin, cell count; assay type: cell-based, human; details: 1 μg per ml holotransferrin, counted at 5 days
Experimental: 2×10^4 PC-3 or PSM-transfected PC-3 cells per well ere plated in RPMI medium supplemented with 10% fetal bovine serum and at 24 hrs. added 1 μg per ml. of holotransferrin to the cells. […] Cells were counted at 1 day to determine plating efficiency and at 5 days to determine the effect of the transferrin. Experiments were repeated to verify the results.

LNCaP cells = experiment: Mitogenic response to transferrin, cell count; assay type: cell-based, human
[5] = 0.05-0.5 mM, semi-purified membrane-bound enzyme

T1 sequence (Q04609 whole entry): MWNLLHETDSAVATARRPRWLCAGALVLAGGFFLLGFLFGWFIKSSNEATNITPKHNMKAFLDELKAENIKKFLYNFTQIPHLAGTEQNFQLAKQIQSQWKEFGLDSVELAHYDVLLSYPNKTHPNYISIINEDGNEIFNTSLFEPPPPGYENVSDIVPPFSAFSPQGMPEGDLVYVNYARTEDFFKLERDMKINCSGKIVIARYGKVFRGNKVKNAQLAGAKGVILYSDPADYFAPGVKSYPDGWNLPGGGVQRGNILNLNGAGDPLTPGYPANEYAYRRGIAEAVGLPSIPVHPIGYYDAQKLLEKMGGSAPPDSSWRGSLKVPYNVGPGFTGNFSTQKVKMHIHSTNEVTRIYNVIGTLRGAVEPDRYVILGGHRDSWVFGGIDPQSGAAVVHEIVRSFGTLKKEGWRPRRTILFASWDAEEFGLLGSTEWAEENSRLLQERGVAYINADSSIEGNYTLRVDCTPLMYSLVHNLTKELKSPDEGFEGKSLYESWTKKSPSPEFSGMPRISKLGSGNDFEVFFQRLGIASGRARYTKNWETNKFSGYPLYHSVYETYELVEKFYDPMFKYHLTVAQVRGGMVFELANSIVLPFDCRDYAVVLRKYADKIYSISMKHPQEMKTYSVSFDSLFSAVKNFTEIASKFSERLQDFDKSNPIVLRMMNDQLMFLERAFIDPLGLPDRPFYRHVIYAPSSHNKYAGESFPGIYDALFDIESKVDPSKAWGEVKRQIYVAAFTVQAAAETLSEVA
T2 sequence (Q04609 whole entry): as above

Molecule: C[C@]12CCC(=O)C[C@@H]1CC[C@@H]1[C@@H]2CC[C@]2(C)[C@@H](O)CC[C@@H]12 [DHT, dihydrotesterone]
- doses at which maximal downregulation of PSM mRNA was seen [1]: 2 to 20 nM
- downregulation of PSM mRNA expression [1]: 8-10 fold
- effect on PSM mRNA expression (in words) [1]: significantly diminished PSM expression

Molecule: CN(Cc1cnc2nc(N)nc(N)c2n1)c1ccc(C(=O)N[C@@H](CCC(=O)N[C@@H](CCC(=O)N[C@@H](CCC(=O)O)C(=O)O)C(=O)O)C(=O)O)cc1 [MTXGlu3, methotrexate triuglutamate]
- hydrolysis as substrate by the PSM enzyme (in words) [2]: liberates progressively glutamates

Molecule: O=C(O)CC[C@H](NC(=O)[C@H](CC(=O)O)NC(=O)CP(=O)(O)O)C(=O)O [PALglu, N-phosphonoacetyl-1-aspartate-glutamate]
- inhibition of neuropeptidase activity (in words) ([3]; NAAG as a substrate): is an inhibitor of the enzyme activity

Molecule: O[C@@H](CS)[C@@H](O)CS [dithfothreitol]
- inhibition of enzymatic activity (in words) ([2]; ≧0.2 mM, semi-purified membrane-bound enzyme): weakly inhibited

Molecule: N[C@@H](CCS)C(=O)O [homocysteine]
- inhibition of enzymatic activity (in words) [2, 5]: not

Molecule: O=C(O)c1cc[c]([Hg+])cc1.[OH-] [p-hydroxymercuribenzoate]
- inhibition of enzymatic activity (in words) [2, 5]: not

Molecule: CC(=O)[C@H]1CC[C@H]2[C@@H]3CCC4=CC(=O)CC[C@]4(C)[C@H]3CC[C@]12C [progesterone]
- effect on PSM mRNA expression (in words) [1]: downregulated PSM expression
- effect on PSM mRNA expression (in words) ([1]; listed as Progesterone): significantly diminished PSM expression

Molecule: N[C@@H](CCC(=O)N[C@@H](CS)C(=O)NCC(=O)O)C(=O)O [reduced glutathione]
- inhibition of enzymatic activity (in words) [2]: not

Molecule: C[C@]12CC[C@H]3[C@@H](CCC4=CC(=O)CC[C@@]43C)[C@@H]1CC[C@@H]2O [testosterone]
- downregulation of PSM mRNA expression [1]: 3-4 fold
- effect on PSM mRNA expression (in words) [1]: significantly diminished PSM expression

Molecule: Penta-gammaglutamyl-folate
- Ki ([3]; read-out: Ki, inhibition of the activity of the enzyme): 500 nM
- hydrolysis as substrate by the PSM enzyme (in words) [2]: liberates progressively glutamates

Molecule: TGFα: growth factor, mitogenic for aggressive prostate cancer cells
- upregulation of PSM expression compared to untreated LNCaP [4]: 10 fold

Molecule: TNFα
- downregulation of PSM expression [4]: 8 fold

Molecule: b-FGF: growth factor
- upregulation of PSM expression compared to untreated LNCaP [4]: 10 fold

Molecule: transferrin: holotransferrin added at 1 μg per ml to the cells
- average increase in cell growth over controls (PC-3 cells): 275%
- stimulation of cell growth (LNCaP cells): 43%

B1: TNFβ: cytokine (protein, UniProt P01374 35-205, looked up)
Lymphotoxin-alpha: LPGVGLTPSAAQTARQHPKMHLAHSTLKPAAHLIGDPSKQNSLLWRANTDRAFLQDGFSLSNNSLLVPTSGIYFVYSQVVFSGKAYSPKATSSPLYLAHEVQLFSSQYPFHVPLLSSQKMVYPGLQEPWLHSMYHGAAFQLTQGDQLSTHTDGIPHLVLSPSTVFFGAFAL
- downregulation of PSM expression [4]: 8 fold
